# Laboratory results published in patent US20240247048A1 (EMORY UNIVERSITY, priority 2021, published 2024).
# Columns and labels:
# [1] = test system: orthotopic KPC-Luc tumors; experiment: orthotopic KPC-Luc pancreatic tumor model; type: in vivo, mouse; settings: FIG. 21b
# Description: KPC.Luc cells were orthotopically implanted in the tail of the pancreas of C57BL/6 mice and treated with ANT008 and/or anti-PD-1 with n=9, 10, 8 and 11 in scrambled+IgG, ANT008+IgG, scrambled+anti-PD-1 and ANT008+anti-PD-1, respectively. (FIG. 21A) Schematic showing orthotopic implantation of KPC.Luc cells and treatment strategy with ANT008 and/or anti-PD-1. (FIG. 21B) Waterfall plot showing % change in tumor flux on day 22 relative to day 7 prior to start of treatment. (FIG. 21C) Total flux as measured by IVIS bioluminescent imaging in the different treatment groups. Isoflurane was used for anesthesia for bioluminescent imaging. Median flux represented as dashed gray line (----). Cross symbol (+) represents mice that were euthanized before day 25 due to ulceration of the tumor and circle symbol (∘) represent mouse that were imaged on day 26 via MRI imaging shown in FIG. 30. (FIG. 21D) Bar graph showing weight of pancreas on day 25 when the mice were euthanized. ‘Star’ shaped (⋆) data points indicate tumor free mice and dotted horizontal line (----) represents the average weight of healthy pancreas from naïve mice. […] P values in FIG. 21D were calculated using student ANOVA followed by Dunnett's post hoc test (comparing each treatment group with Scram+IgG). […]
# [2] = test system: MT5, KPC-Luc, Panc02, BXPC3, Capan-02 PDAC cell lines; experiment: cell viability assay (MTT) of PDAC cell lines; type: cell-based, mouse and human; settings: 0-5 uM, 72 hours; FIG. 13E, 24a
# Procedure: (FIG. 24A) Percentage viability of murine (MT5, KPC.Luc, Panc02) and human (Capan02, BxPC3) PDAC cell lines cultured in the presence of different concentrations ranging from 0-5 μM of ANT008 for 72 hours is plotted. Confirmation of CRISPR-Cas9 KO of VIPR2 encoding VPAC2 receptor via (FIG. 24B) western blot; (FIG. 24C) RT-PCR using primers targeting exon 9-12 downstream of targeted site and (FIG. 24D) Sanger Sequencing showing the validation of in-del mutation in exon 2. In vitro MTT assay showing (FIG. 24E) Proliferation of WT and KO cells over 72 hours; (FIG. 24F) Percent viability of wild type (WT) and VPAC2 KO (KO) Panc02 cells treated with ANT008 and ANT308 at 3 μM for 72 hours. (FIG. 24G) Tumor growth curve of WT versus KO Panc02 cells in C57BL/6 mice following subcutaneous tumor implantation. Values represent median tumor volume±95% confidence interval. (FIG. 24H) Kaplan-Meier survival plots corresponding to results in FIG. 24G. Median survival time for WT is 21 days and 28 days for VPAC2 KO. Error bars represent mean and standard deviation. *p<0.05, **p<0.01.
# Cell viability assay. […] Cell viability was assessed using cell proliferation kit I from Roche (Basel, Switzerland), following the manufacturer's instructions. […] This was followed by incubation with solubilization buffer overnight and reading the absorbance at 570 nm. […]
# intraocular melanoma = experiment: liver metastases in intraocular melanoma mouse model; type: in vivo
Sequence,"mice in which tumors regressed, number of mice of group [1]",mice in which tumors regressed ([1]; tumor flux day 22 relative to day 7) [%],viability and growth of PDAC cell lines in vitro [2],"growth of liver metastases (intraocular melanoma; 3 weeks after tumor inoculation, N=6, FIG. 36)",size of intraocular melanoma (intraocular melanoma; FIG. 38),"angiogenesis of liver metastases (intraocular melanoma; N=10, FIG. 37)","hepatic metastases in 3 weeks (intraocular melanoma; n=6, FIG. 34)"
KPRRPYTDNYTRLRKQMAVKKYLNLILN [ANT008],4/10,40,"did not affect viability of PDAC cell lines in vitro, except a transient effect in MT5",,,,
KPRRPYTSDYTRLRKQMAVKKYLNLILN [ANT308],,,,suppressed growth,not affected,inhibited angiogenesis,decreased
